Data on six compounds can be found in patent EP0606463B1, “NEUROMEDIN B RECEPTOR ANTAGONISTS” (The Administrators of The Tulane Educational Fund, priority 1992, dated 1994).

Where a SMILES comes first, the peptide text is derived from it. Bridges are numbered along the chain shown (N, C = ends). Where no end group is shown, it is not given here. [ ]: non-standard residue; d: D form. 2Nal = N[C@@H](Cc1ccc2ccccc2c1)C(=O)O; d2Nal = N[C@H](Cc1ccc2ccccc2c1)C(=O)O; Lys(Et2) = CCN(CC)CCCC[C@H](N)C(=O)O; Lys(iPr) = CC(C)NCCCC[C@H](N)C(=O)O

For one test, the target named is T1, rat NMB receptor (Rattus norvegicus, UniProt P24053).
T1 construct: a full length NMB-preferring bombesin receptor clone generated from rat esophagus; expressed in transfected cells; host or cells: BALB 3T3 cells
T1 sequence (P24053 1-390): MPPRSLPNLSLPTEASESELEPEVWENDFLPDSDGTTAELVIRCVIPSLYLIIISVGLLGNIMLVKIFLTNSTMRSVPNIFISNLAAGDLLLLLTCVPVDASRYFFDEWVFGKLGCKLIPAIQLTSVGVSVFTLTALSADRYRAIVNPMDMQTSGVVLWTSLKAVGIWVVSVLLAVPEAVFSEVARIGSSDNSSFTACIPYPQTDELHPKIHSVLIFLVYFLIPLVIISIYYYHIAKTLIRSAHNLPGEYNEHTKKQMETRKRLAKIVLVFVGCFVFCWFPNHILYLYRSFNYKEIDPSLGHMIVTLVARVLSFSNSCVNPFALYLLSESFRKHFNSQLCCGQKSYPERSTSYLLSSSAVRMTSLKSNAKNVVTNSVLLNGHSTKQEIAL
Put plainly: Binding of 125I-[D-Tyr0]NMB to NMB-R transfected BALB 3T3 cells. The conditions noted are these: for fold by which cyclo SS-octa was more potent than the analog: inhibition of ^125I-[Tyr^0]NMB binding to NMB-R transfected cells; for decrease in NMB receptor affinity compared with #1: structure-function comparison of Table 1 values. The procedure:
(§1) Cells were passaged every 3-4 days at confluence, using 0.1% trypsin in 1 mM EDTA. Rat glioblastoma C-6 tumor cells were maintained similarly and were passaged weekly at confluence. Both cell lines were cultured at 37°C in a 5% CO2 atmosphere. Rat AR 42J pancreatic acinar cells were cultured in Dulbecco's modified Eagle's medium (DMEM) without antibiotics and supplemented with 10% (vol/vol) fetal calf serum. The incubation atmosphere consisted of 10% CO2-90% humidified air at 37°C.

The next test has as its target T2, NMB Receptor (Rattus norvegicus, UniProt P24053).
T2 construct: a full length NMB-preferring bombesin receptor clone generated from rat esophagus; expressed in transfected cells; host or cells: BALB 3T3 cells
T2 sequence (P24053 1-390): T1 sequence (P24053 1-390)
As to the kind of experiment: [3H]inositol phosphates (IP) in NMB-R transfected cells. Type of test: cell-based. The following applies: for NMB-R Transfected Cells [^3H]IP Alone (10 µ M): analog 10 µM alone, no-additive control 13 ± 3; for NMB-R Transfected Cells [^3H]IP Plus NMB (3 nM): analog 10 µM plus NMB 3 nM, NMB without analog 186 ± 58; for effect on NMB-stimulated increase in [^3H]IP: NMB-R transfected cells, 3 nM NMB, peptide 10 µM. The procedure: as §1, with “As described previously [Wada, E., et al. Neuron 6:421 (1991)], BALB 3T3 cells expressing a stably transfected rat NMB receptor (NMB-R transfected cells) were obtained using calcium phosphate precipitation of a full length NMB-preferring bombesin receptor clone generated from rat esophagus and subcloned into a modified version of the pCD2 plasmid. Cells” for “Cells”
(§2) Total phosphoinositides in C-6 cells and in NMB-R transfected cells were determined as described previously, with minor modifications [Benya, R. V. et al. Mol. Pharmacol. 42:1058 (1992); and Wang, L-H. et al. Biochem. J. 286:641 (1992)]. Cells were grown to confluence in 24-well plates and then loaded with 100 µCi/ml myo-[2-^3H]inositol in Dulbecco's modified essential medium with 2% fetal bovine serum at 37°C for 48 hrs. Cells were washed and incubated in phosphoinositide buffer (standard buffer additionally containing 10 mM LiCl, 20 mM HEPES, 2 mM CaCl2, 2% BSA, and 1.2 mM MgSO4) for 15 min and then for 60 min at 37°C with agonists at various concentrations or with 3 nM NMB (a half-maximal effective concentration) and possible antagonists at different concentrations. Reactions were halted using ice-cold 1% HCl in methanol, and the inositol phosphates (IP) were isolated as described previously [Bologna, M. et al. Cancer 63:1714 (1989); and Endo, T. et al. J. Endocrinol. 131:313 (1991)]. Briefly, after loading of the anion exchange column, free [^3H]glycerophosphorylinositol was removed by washing with 5 mM disodium tetraborate in 60 mM sodium formate. Total [^3H]inositol phosphates were then eluted using 100 mM formic acid in 1.0 M ammonium formate as described previously [Benya, R. V. et al. Mol. Pharmacol. 42:1058 (1992); and Wang, L-H. et al. Biochem. J. 286:641 (1992)].

The next test concerns the target T3, GRP Receptor (Rattus norvegicus, UniProt P52500).
T3 construct: from tissue; host or cells: dispersed pancreatic acini
As to the kind of experiment: Amylase release from rat pancreatic acini. In kind it is cell-based. The conditions noted are these: for Rat Pancreatic Acini Amylase Release Alone (10µM): analog 10 µM alone, no-additive control 4 ± 1; for Rat Pancreatic Acini Amylase Release Plus Bn(0.3 nM): analog 10 µM plus Bn 0.3 nM, Bn without analog 15 ± 1.

Test [1] addresses T4, NMB receptors on C-6 glioblastoma cells (Rattus norvegicus, UniProt P24053).
T4 construct: endogenous in cells; host or cells: rat glioblastoma C-6 cells
T4 sequence (P24053 1-390): T1 sequence (P24053 1-390)
As to the kind of experiment: NMB-stimulated [3H]IP in C-6 glioblastoma cells. Type of test: cell-based. The method, then:
as §2, with “for 60 min at 37°C with agonists at various concentrations or with 3 nM NMB (a half-maximal effective concentration) and possible antagonists at different concentrations.” left out

Test [2] concerns endothelin-1-simulated increases in [^3H]IP. As to the kind of experiment: Endothelin-1-stimulated [3H]IP in C-6 glioblastoma cells. Type of test: cell-based, rat. The procedure: as §2
In test [3] the target is T5, NMB receptors on rat olfactory bulb membranes (Rattus norvegicus, UniProt P24053).
T5 construct: Membranes were prepared from rat olfactory bulb (NMB membrane receptor assay); from tissue; host or cells: rat olfactory bulb membranes
T5 sequence (P24053 1-390): T1 sequence (P24053 1-390)
Put plainly: NMB membrane receptor assay (rat olfactory bulb membranes). Type of test: binding. The conditions noted are these: rat olfactory bulb versus rat forebrain membranes (Table 4).

T3 sequence (P52500 whole entry): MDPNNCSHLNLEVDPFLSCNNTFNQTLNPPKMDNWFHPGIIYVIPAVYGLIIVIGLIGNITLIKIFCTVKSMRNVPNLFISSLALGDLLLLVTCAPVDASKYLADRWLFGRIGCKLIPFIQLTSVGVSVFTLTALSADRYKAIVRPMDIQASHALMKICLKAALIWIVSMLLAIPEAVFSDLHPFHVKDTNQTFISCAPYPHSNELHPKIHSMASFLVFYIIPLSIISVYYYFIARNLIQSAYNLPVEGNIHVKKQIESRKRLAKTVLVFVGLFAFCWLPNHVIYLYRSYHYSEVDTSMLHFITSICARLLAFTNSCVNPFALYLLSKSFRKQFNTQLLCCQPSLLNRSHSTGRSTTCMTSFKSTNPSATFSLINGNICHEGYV

With `C[C@@H](O)[C@H](NC(=O)[C@@H]1CSSC[C@H](NC(=O)[C@H](N)Cc2ccc3ccccc3c2)C(=O)N[C@@H](Cc2ccc(O)cc2)C(=O)N[C@H](Cc2c[nH]c3ccccc23)C(=O)N[C@@H](CCCCN)C(=O)N[C@@H](Cc2ccc3ccccc3c2)C(=O)N1)C(N)=O` [Analog #2, [Nal^6,Thr^8]-cyclo SS-octa], on rat NMB receptor, the “fold by which cyclo SS-octa was more potent than the analog” value is recorded as 4 fold and the “decrease in NMB receptor affinity compared with #1” value (shortened to “decrease in NMB receptor affinity”) is 4 fold. Also, at NMB Receptor, the “NMB-R Transfected Cells [^3H]IP Alone (10 µ M)” value was 11 ± 2 dpm x 10^3 and the “NMB-R Transfected Cells [^3H]IP Plus NMB (3 nM)” value (“NMB-R Transfected Cells … (3 nM)” for short) came to 39 ± 7 dpm x 10^3. Moreover, on GRP Receptor, the “Rat Pancreatic Acini Amylase Release Alone (10µM)” value is recorded as 5 ± 1 % total and the “Rat Pancreatic Acini Amylase Release Plus Bn(0.3 nM)” value amounted to 13 ± 1 % total. For the same compound, the “[^3H]IP, Peptide Added NMB (10 nM)” value in test [1] (C-6 glioblastoma cells, analog 10 µM plus NMB 10 nM) came to 14.3 ± 4.2 dpm x 10^3. Also, the “[^3H]IP, Peptide Added None” value in test [1] (C-6 glioblastoma cells, analog 10 µM, no agonist, control 7.2±1.0) was 7.3±1.2 dpm x 10^3. Moreover, the “effect on NMB-stimulated increases in [^3H]IP in C-6 glioblastoma cells” value in test [1] (Table 3) is “inhibited”. Further, the “[^3H]IP, Peptide Added ET-1 (0.1 nM)” value in test [2] (C-6 glioblastoma cells, analog 10 µM plus ET-1 0.1 nM) is reported as 11.2±1.9 dpm x 10^3. Also, in test [2] (Table 3), the “effect on endothelin-1-simulated increases in [^3H]IP in C-6 cells” value is listed as “had no effect”.

Take `CC(C)[C@@H]1NC(=O)[C@H](CCCCN)NC(=O)[C@@H](Cc2c[nH]c3ccccc23)NC(=O)[C@H](Cc2ccc(O)cc2)NC(=O)[C@@H](NC(=O)[C@H](N)Cc2ccc3ccccc3c2)CSSC[C@H](C(=O)N[C@@H](Cc2ccc3ccccc3c2)C(N)=O)NC1=O` [Analog #11, [D-Cys^7]-cyclo SS-octa] (H-[d2Nal]CY[dW]KV[dC][2Nal]-NH2; disulfide 2-7; N-terminus assumed): on rat NMB receptor, the “fold by which cyclo SS-octa was more potent than the analog” value is on record as 6 fold and the “decrease in NMB receptor affinity” value is recorded as 5 fold. Besides, at NMB Receptor, the “effect on NMB-stimulated increase in [^3H]IP” value is “completely inhibited”, the “NMB-R Transfected Cells [^3H]IP Alone (10 µ M)” value came to 10 ± 1 dpm x 10^3 and the “NMB-R Transfected Cells … (3 nM)” value was found to be 7 ± 4 dpm x 10^3. In addition, at GRP Receptor, the “Rat Pancreatic Acini Amylase Release Alone (10µM)” value is 2 ± 1 % total and the “Rat Pancreatic Acini Amylase Release Plus Bn(0.3 nM)” value was 14 ± 1 % total. In addition, the “fold greater affinity for NMB receptors than mu opioid receptors” value in test [3] is > 50 fold.

Take `CC(C)NCCCC[C@@H]1NC(=O)[C@@H](Cc2c[nH]c3ccccc23)NC(=O)[C@H](Cc2ccc(O)cc2)NC(=O)[C@@H](NC(=O)[C@H](N)Cc2ccccc2)CSSC[C@@H](C(=O)N[C@@H](Cc2ccc3ccccc3c2)C(N)=O)NC(=O)[C@H]([C@@H](C)O)NC1=O` [Analog #15, [D-Phe^1, Lys(iPr)^5, Thr^6]-cyclo SS-octa] (H-[dF]CY[dW][Lys(iPr)]TC[2Nal]-NH2; disulfide 2-7; N-terminus assumed): on rat NMB receptor, the “fold by which cyclo SS-octa was more potent than the analog” value amounted to 9 fold. In addition, at NMB Receptor, the “NMB-R Transfected Cells [^3H]IP Alone (10 µ M)” value worked out at 11 ± 1 dpm x 10^3 and the “NMB-R Transfected Cells … (3 nM)” value turned out to be 67 ± 7 dpm x 10^3. Besides, on GRP Receptor, the “Rat Pancreatic Acini Amylase Release Alone (10µM)” value is 4 ± 2 % total and the “Rat Pancreatic Acini Amylase Release Plus Bn(0.3 nM)” value amounted to 13 ± 2 % total.

`CCN(CC)CCCC[C@@H]1NC(=O)[C@@H](Cc2c[nH]c3ccccc23)NC(=O)[C@H](Cc2ccc(O)cc2)NC(=O)[C@@H](NC(=O)[C@H](N)Cc2ccccc2)CSSC[C@@H](C(=O)N[C@@H](Cc2ccc3ccccc3c2)C(N)=O)NC(=O)[C@H]([C@@H](C)O)NC1=O` [Analog #16, [D-Phe^1, Lys(diEt)^5, Thr^6] cyclo SS-octa] (H-[dF]CY[dW][Lys(Et2)]TC[2Nal]-NH2; disulfide 2-7; N-terminus assumed): the “fold by which cyclo SS-octa was more potent than the analog” value on rat NMB receptor is 18 fold. Also, on NMB Receptor, the “NMB-R Transfected Cells [^3H]IP Alone (10 µ M)” value turned out to be 11 ± 2 dpm x 10^3 and the “NMB-R Transfected Cells … (3 nM)” value was determined as 73 ± 15 dpm x 10^3. Also, on GRP Receptor, the “Rat Pancreatic Acini Amylase Release Alone (10µM)” value came to 5 ± 1 % total and the “Rat Pancreatic Acini Amylase Release Plus Bn(0.3 nM)” value was 12 ± 1 % total.

On to `CC(C)[C@@H]1NC(=O)[C@H](CCCCN)NC(=O)[C@@H](Cc2ccc3ccccc3c2)NC(=O)[C@H](Cc2ccc(O)cc2)NC(=O)[C@@H](NC(=O)[C@H](N)Cc2ccc3ccccc3c2)CSSC[C@@H](C(=O)N[C@@H](Cc2ccc3ccccc3c2)C(N)=O)NC1=O` [Analog #17, [D-Nal^4]-cyclo SS-octa] (H-[d2Nal]CY[d2Nal]KVC[2Nal]-NH2; disulfide 2-7; N-terminus assumed), for which the “fold greater affinity for the NMB than the GRP receptors” value on rat NMB receptor (NMB-R transfected cells versus GRP receptors on rat pancreatic acini) is > 100 fold. For the same compound, on rat NMB receptor, the “fold by which cyclo SS-octa was more potent than the analog” value was determined as 2 fold and the “decrease in NMB receptor affinity” value is “almost no effect on affinity”. Further, on NMB Receptor, the “effect on NMB-stimulated increase in [^3H]IP” value was “completely inhibited”, the “NMB-R Transfected Cells [^3H]IP Alone (10 µ M)” value amounted to 12 ± 4 dpm x 10^3 and the “NMB-R Transfected Cells … (3 nM)” value turned out to be 15 ± 2 dpm x 10^3. Moreover, on GRP Receptor, the “Rat Pancreatic Acini Amylase Release Alone (10µM)” value was 4 ± 2 % total and the “Rat Pancreatic Acini Amylase Release Plus Bn(0.3 nM)” value amounted to 19 ± 1 % total.

For “endothelin 1 (CSCSSLMDKECVYFCHLDIIW; disulfide 1-15, 3-11; ends not checked; UniProt P05305 53-73, looked up) [ET-1, agonist from Peninsula Laboratories, reference compound]”, the “[^3H]IP, ET-1 (0.1 nM) Alone” value in test [2] (C-6 glioblastoma cells, agonist without analog, basal 7.2±1.0) is 11.0±2.1 dpm x 10^3.
